Marks after values point to notes of the source that are not given here.
Assays:
[1] = Urinary excretion rate after oral gavage to non-fasted rats (HPLC of urine, free and conjugated forms); type: in vivo, Male Wistar rats; conditions: 40 mg/kg BW gavage; for Total urinary excretion rate at 48 h: all free and conjugated HAs
Procedure: The urine samples were stored at -80 °C until analysis. The rats were fed the AIN-93M diet throughout the experiment. This study was approved by the Animal Care Committee of Kindai University (permit number KABT-24-002), and the animals were maintained in accordance with the guidelines. Sample size, dose, and duration of urine collection were determined on the basis of our preliminary experiments.
The HA composition in urine was determined by the method described by Zhao et al. with a modification. […] The urine sample (20 μL) was added to 360 μL of acetic acid buffer (pH 5.0) containing 10 μg/mL sinapinic acid (internal standard) and 20 μL of acetic acid buffer (pH 5.0). The mixed solution was filtered through a 0.20 μm disposable syringe filter unit. The filtrate was analyzed by HPLC to quantify free forms of the HAs. Enzymatic hydrolysis was used to determine conjugated forms (glucuronidated and/or sulfated forms). The urine sample (20 μL) was added to 360 μL of acetic acid buffer (pH 5.0) containing 10 μg/mL sinapinic acid (internal standard) and 20 μL of β-glucuronidase type H-2 (containing both β-glucuronidase and sulfatase activity). […] The mixture was saturated with nitrogen gas and incubated at 37 °C for 2 h, followed by filtration through a 0.20 μm disposable syringe filter unit. The filtrate was analyzed by HPLC and the total amount of HAs (free forms and conjugated forms) was quantified. The conjugated HA levels were calculated by subtracting the amount of HA free forms from the total amount of HAs. […] The separation was performed using a 0.1% (v/v) trifluoroacetic acid–methanol solution (75:25, v/v) as the mobile phase at a flow rate of 1.0 mL/min at 40 °C. The injection volume was 10 μL. p-Coumaric acid was detected at 309 nm and the other HAs as well as sinapinic acid were detected at 325 nm based on the maximum absorbance. The urinary excretion rate was calculated as the percentage of the dose (mol/mol).

[2] = rats fed supplemented diet; cited from earlier work
[3] = parameters: method as in PMID 12097677, PMID 12730422; conditions: cited from earlier work
[4] = parameters: method as in PMID 16608213; conditions: fasted rats, cited from earlier work

With `O=C(O)/C=C/c1ccc(O)c(O)c1` [Caffeic acid, caffeic acid] the “Caffeic acid urinary excretion rate” value ([1]; urine 0-6 h) was 7.1 % of the dose.

In the case of `O=C(/C=C/c1ccc(O)c(O)c1)O[C@@H]1C[C@](O)(C(=O)O)C[C@@H](O)[C@H]1O` [Chlorogenic acid, chlorogenic acid], the “Chlorogenic acid excreted in the urine at 48 h” value ([1]; urine 0-48 h, free form, mean ± SE n = 4, 40 mg/kg) is given as 0.04 ± 0.005^a % of the dose, the “Chlorogenic acid excreted in the urine at 48 h” value ([1]; urine 0-48 h, free form, mean ± SE n = 4, listed as chlorogenic acid, 40 mg/kg) is given as 0.04 % of the dose and the “Urinary excretion of chlorogenic acid or the total amount of caffeic, ferulic, and isoferulic acids” value [2] is given as “less than 1 % of the chlorogenic acid intake”.

With `COc1cc(/C=C/C(=O)O)ccc1O` [Ferulic acid, ferulic acid] the “Total urinary excretion rate at 48 h” value ([1]; mean ± SE n = 4, 40 mg/kg) was 73.2 ± 2.1 % of the dose, the “Total urinary excretion rate at 48 h” value ([1]; mean ± SE n = 4, listed as ferulic acid, 40 mg/kg) was 73.2 % of the dose and the “Ferulic acid excreted in the urine at 48 h” value ([1]; urine 0-48 h, free form, mean ± SE n = 4) was 3.01 ± 0.38^a % of the dose. The “Ferulic acid conjugates excreted in the urine at 48 h” value ([1]; urine 0-48 h, mean ± SE n = 4) was 70.2 ± 6.8^b % of the dose, the “Ferulic acid conjugates urinary excretion rate” value ([1]; urine 0-6 h) was 64.1 % of the dose and the “Ferulic acid urinary excretion rate” value ([1]; urine 0-6 h) was 3.0 % of the dose. The “Percentage of conjugates in the total urinary excretion” value ([1]; urine at 48 h) was 96% and the “Ingested ferulic acid recovered as conjugated forms in the urine” value [3] was 50–70%.

In the case of `O=C(O)/C=C/c1ccc(O)cc1` [p-Coumaric acid, p-coumaric acid], the “p-Coumaric acid urinary excretion rate” value ([1]; urine 0-6 h) is given as 14.2 % of the dose, the “Ingested p-coumaric acid found in the urine as an intact form” value ([4]; gavage) is given as 23% and the “Time after gavage within which the majority of p-coumaric acid was detected in urine” value [4] is given as no more than 4 h.

Source: paper PMC6838876 (Heliyon, 2019)
